# Measured values published in patent publication US10683267B1, “Antidiabetic compounds” (King Abdulaziz University, priority 2019, dated 2020).
# Where two headings read alike, the source gives them in different places. Marks after values point to notes of the source that are not given here.
# How the values were obtained:
# DPP-IV enzyme = molecular target: T1, DPP-IV enzyme (Homo sapiens, UniProt P27487); test: In vitro DPP-IV inhibition assay (Biovision kit, fluorescence); assay type: biochemical; settings: for DPP-4 enzyme inhibition activity, in words: SAR discussion
# T1 construct: purchased Biovision (Milpitas, Calif., USA)
# T1 sequence (P27487 whole entry, species assumed): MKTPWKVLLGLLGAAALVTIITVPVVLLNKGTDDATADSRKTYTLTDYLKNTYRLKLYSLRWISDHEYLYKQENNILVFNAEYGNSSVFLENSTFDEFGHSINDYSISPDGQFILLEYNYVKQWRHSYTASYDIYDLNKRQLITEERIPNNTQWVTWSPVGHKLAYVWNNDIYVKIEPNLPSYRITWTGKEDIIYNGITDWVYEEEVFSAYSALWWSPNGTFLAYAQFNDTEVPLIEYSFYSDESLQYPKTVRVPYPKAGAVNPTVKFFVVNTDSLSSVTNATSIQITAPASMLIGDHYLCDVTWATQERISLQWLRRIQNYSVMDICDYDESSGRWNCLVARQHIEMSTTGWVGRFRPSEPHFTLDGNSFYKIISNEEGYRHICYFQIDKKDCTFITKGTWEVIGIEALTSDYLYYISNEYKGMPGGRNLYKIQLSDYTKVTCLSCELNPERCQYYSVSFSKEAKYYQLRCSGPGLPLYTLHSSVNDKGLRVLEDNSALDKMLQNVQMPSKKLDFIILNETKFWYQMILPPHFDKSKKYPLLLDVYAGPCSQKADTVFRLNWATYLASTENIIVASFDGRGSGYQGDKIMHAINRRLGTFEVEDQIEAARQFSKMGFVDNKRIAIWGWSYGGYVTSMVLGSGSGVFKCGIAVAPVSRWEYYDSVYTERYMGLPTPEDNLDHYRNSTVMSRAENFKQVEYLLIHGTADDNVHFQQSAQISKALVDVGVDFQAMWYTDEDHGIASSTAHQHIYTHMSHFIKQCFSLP
# Protocol: DPP-IV inhibition assay was conducted using a kit purchased from Biovision (Milpitas, Calif., USA). Briefly, DPP-IV enzyme was diluted with Tris buffer and pipetted 50 μl into glass mini-cells. […] Finally a volume of 25 μl of DPP-IV substrate was added into each tube. The fluorescence generated from hydrolysis of the substrate was read at Ex/Em=360/460 nm using Modulus® single tube multimode reader (Promega, USA). Baseline fluorescence was recorded before incubation (R1) and 20 min after incubation (R2).
# The standard DPP-IV inhibitor drug sitagliptin employed as positive control. […] Sigmoidal concentration-response curves for DPP-IV % inhibition versus log concentration were plotted using Graphpad prism software, version 5.00 (GraphPad Software, Inc. La Jolla, Calif., USA).
# diabetic mice [1] = test: Fasting blood glucose of diabetic mice treated daily for 6 consecutive days; assay type: in vivo; settings: 50 mg/kg oral daily
# Protocol: (§1) The Biochemical and Research Ethical Committee of King Abulaziz University (Jeddah, Saudi Arabia), in accordance with the NIH guidelines, approved all procedures, and the animals received human care during the experimental period. Experiments were carried out using adult male Swiss albino mice (SWR), of 8-9 weeks age and 30-35 g weight. Animals were purchased from the animal house of the King Fahed Medical Research center (KFMRC), Jeddah, Saudi Arabia. Mice were kept at a constant temperature of 24-25° C. and were subjected to a controlled 12 h light-dark cycle; they had free access to water and pelleted diet ad libitum.
# (§2) Nicotinamide (210 mg/kg b.w.), dissolved in saline, was injected intraperitoneally 15 min before the intraperitoneal injection of Streptozotocin (STZ) (Sigma, 180 mg/kg b.w.), which was freshly prepared in citrate buffer (pH 4.5). Control animals received both vehicles. During the experimental period, animals' food intake and body weight gain were monitored once a week.
# (§3) On the same groups that received the single dose treatment, the tested compounds were given daily by oral gavage for six consecutive days. On day 6, the overnight fasted diabetic mice were pretreated with the 6th oral dose of the tested compounds. Two hours later, an oral glucose was loaded (2 g/kg/10 ml b.w.). Blood glucose levels were determined using the Accu-check Go®. Samples were collected just before drug administration (Fasting Blood glucose), then 2 h after drug treatment and before glucose administration. Samples collection was continued at 20, 40, 60 and 120 min intervals after glucose loading.
# The oral glucose tolerance test (OGTT) was performed over six days on diabetic mice. The glucose level was monitored daily (Table 3). The results were analyzed for activities after a single dose (Table 4) and after the 6th dose of the drug (Table 5).
# diabetic mice [2] = test: Oral glucose tolerance test (OGTT) after single dose in diabetic mice; assay type: in vivo; settings: for R.P. to Vildagliptin (Single Dose): Table 6, relative potency, B.G. = blood glucose; for AUC of blood glucose in OGTT (X, mean): glucose load 2 g/kg 2 h later, AUC 0-120 min
# Protocol: as §1, §2
# Oral glucose tolerance tests were performed in 14 h overnight fasted diabetic mice that were pretreated with a single oral dose of the tested compounds. […] The drugs were suspended in carboxymethyl cellulose (CMC)-Na (1% in distilled water) and the dosing volume was adjusted at 10 mL/kg body weight of the mouse. Then an oral glucose load was administered (2 g/kg) 2 h after drug treatment. Blood glucose levels were determined using the Accu-check Go® (Roche Diagnostics, Michigan, USA). Samples were collected just before drug administration (fasting blood glucose), then at 2 h after drug treatment (immediately before glucose loading). Then blood sample collection was continued at 20, 40, 60 and 120 min intervals after glucose loading.
# Animals were distributed between three categories of groups. Each group is composed of six animals (n=6) […] as follows:
# Category 1: One group of animals were 14 h overnight-fasted normoglycemic mice and vehicle-treated (1% CMC-Na) at a dose of 10 ml/kg.
# Category 2: Another group of animals was overnight fasted diabetic mice received the vehicle (1% CMC-Na) at a dosing volume of 10 ml/kg and served as a negative control.
# Category 4: Animals of these groups were overnight fasted diabetic mice received the tested compounds at a dose of 50 mg/kg in 1% CMC (volume of 10 ml/kg).
# diabetic mice [3] = test: Oral glucose tolerance test (OGTT) after multiple doses (6 days) in diabetic mice; assay type: in vivo; settings: for AUC % change from diabetic control / AUC Δ from diabetic control / Relative potency to vildagliptin / AUC of blood glucose in OGTT (X, mean): 50 mg/kg oral for 6 days; for Relative potency to vildagliptin: OGTT AUC; for AUC of blood glucose in OGTT (X, mean): glucose load 2 g/kg 2 h after 6th dose, AUC 0-120 min; for R.P. to Vildagliptin (6 Days): Table 6, relative potency, B.G. = blood glucose
# Protocol: as §1, §2, §3
# [4] = Table 2, head prints no unit, nM per Table 6, read-out: IC50
# [5] = read-out: enzymatic inhibition value / inhibitory activity (IC50)
Structure (SMILES),"DPP-4 enzyme inhibition activity, in words (DPP-IV enzyme)",IC50 (DPP-IV enzyme; [4]),"IC50 (DPP-IV enzyme; Table 6, read-out: IC50)",IC50 (DPP-IV enzyme; [5]),"Fasting blood glucose level, Day 1 (diabetic mice [1])","Fasting blood glucose level, Day 2 (diabetic mice [1])","Fasting blood glucose level, Day 3 (diabetic mice [1])","Fasting blood glucose level, Day 4 (diabetic mice [1])","Fasting blood glucose level, Day 5 (diabetic mice [1])","Fasting blood glucose level, Day 6 (diabetic mice [1])",R.P. to Vildagliptin (Single Dose) (diabetic mice [2]),AUC Δ from diabetic control (diabetic mice [2]; single oral dose 50 mg/kg),"AUC of blood glucose in OGTT (X, mean) (diabetic mice [2]; single oral dose 50 mg/kg)",AUC % change from diabetic control (diabetic mice [3]),AUC Δ from diabetic control (diabetic mice [3]),Relative potency to vildagliptin (diabetic mice [3]),"AUC of blood glucose in OGTT (X, mean) (diabetic mice [3])",R.P. to Vildagliptin (6 Days) (diabetic mice [3]),other results
N#Cc1cccc(NC(=O)CNC23CC4CC(CC(C4)C2)C3)c1 [Compound 110],high affinity towards the enzyme,3.02 nM,3.02 nM,3 nM,165.00 ± mg/dL,107.20 ± mg/dL,83.00 ± mg/dL,105.60 ± mg/dL,111.80 ± mg/dL,121.40 mg/dL,1.11,18801 mg·min/dL,32264* mg · dL^−1 · min,−30.05%,15825 mg·min/dL,0.83,36830* mg · dL^−1 · min,0.27,% Inhibition @ 100 nM (DPP-IV enzyme; compound at 100 nM): 65.51%
"O=C(CNC12CC3CC(CC(C3)C1)C2)Nc1ccccn1 [Compound 119, 2-[(adamantan-1-yl)amino]-N-(pyridin-2-yl)acetamide]",best functionality in enzyme inhibition activity,1.58 nM,1.58 nM,1.6 nM,149.60 ± mg/dL,103.40 ± mg/dL,104.80 ± mg/dL,148.60 ± mg/dL,107.60 ± mg/dL,118.60 ± mg/dL,1.417,23997 mg·min/dL,27068* mg · dL^−1 · min,−23.26%,12250 mg·min/dL,0.64,40405* mg · dL^−1 · min,1.26,"DPP-4 enzyme inhibition activity, in words (DPP-IV enzyme; listed as GLP-119): high level of potency both in vitro and in vivo; inhibition at 0.1 µM (DPP-IV enzyme; compound at 100 nM): 58%; AUC % change from diabetic control (diabetic mice [2]; single oral dose 50 mg/kg): −46.99%"
